Source: patent US20240307362A1 (priority 2019, published 2024)
Where two headings read alike, the source gives them in different places.

How the values were obtained:
[1] = system: Ba/F3-ERBB2-A775_G776insYVMA; assay: Ba/F3 cell survival assay, ERBB2 A775_G776insYVMA; format: cell-based; settings: Mus musculus, BaF3, 48 h, read-out: BA/F3 (ERBB2 A775_G776 insYVMA) IC50
Experimental: (§1) 293T cells from ATCC were transfected with pBABEpuro expression constructs for mutant EGFR (V769_D770insASV, D770_N771insNPG, N771_P772insH, H773_V774insNPH, E746_A750del, L858R, D770_N771 insSVD C797S, E746_A750del C797S, L858R C797S, L861Q) or mutant ERBB2 (A775_G776insYVMA) and pCL-Eco packaging vector using Fugene-6 transfection reagent from Promega. Plates were incubated at 37° C. for 48 h. Retrovirus was harvested by filtering the media supernatant through a 0.45 μm filter.
(§2) Ba/F3 cells purchased from DSMZ were grown in RPMI+10% FBS+10 ng/mL IL-3 and infected with filtered retroviral supernatant at a 1:2 dilution. Polybrene was added to a concentration of 8 μg/mL, plates were spun for 90 min, and incubated overnight at 37° C. 2 μg/mL puromycin was added to the infected cells 24 h after infection and cells were continually grown in the presence of puromycin and 10 ng/mL IL-3. Following stably expressing Ba/F3 cell lines were generated: Ba/F3-EGFR-V769_D770insASV, Ba/F3-EGFR-D770_N771insNPG, Ba/F3-EGFR-N771_P772insH, Ba/F3-EG, Ba/F3-EGFR-H773_V774insNPH, Ba/F3-EGFR-E746_A750del, Ba/F3-EGFR-L858R, Ba/F3-EGFR-D770_N771 insSVD C797S, Ba/F3-EGFR-E746_A750del C797S, Ba/F3-EGFR-L858R C797S, Ba/F3-EGFR L861Q and Ba/F3-ERBB2-A775_G776insYVMA (Ba/F3—vector-control).
(§3) For cell survival assays, Ba/F3 cells were grown to a density of 1-2 million cells per mL, spun down and resuspended in media without IL-3, and replated at a concentration 200,000-500,000 cells per mL. The cells ectopically expressing WT EGFR plated with 10 ng/mL Millipore Culture grade EGF and Ba/F3 cells containing mutant EGFR or Mutant ERBB2 were cultivated without EGF. The cells ectopically expressing pBABEpuro empty vector were plated with 10 ng/mL IL-3.
(§4) 2 days later, cells were plated in 50 μL in a 384 well plate at a concentration of 4000 cells per well for cells assayed in the absence of IL-3 and 2000 cells per well for cells assayed in the presence of IL-3. 100 nL of compound was added to each well using a 100 nL pin head, and plates were incubated at 37° C. for 48 h.
(§5) Cell viability was measured by adding 20 μL of Cell Titer-Glo Luminescent Cell Viability Reagent diluted 1:3 in PBS. Plates were sealed with Perkin Elmer Top-Seal, inverted several times to mix, and immediately centrifuged at 1000 rpm for 2 min. Plates were incubated in low light conditions for 8-10 min and luminescence was measured.

[2] = system: Ba/F3-EGFR-V769_D770insASV; assay: Ba/F3 cell survival assay, EGFR V769_D770insASV; format: cell-based; settings: 48 h, read-out: BA/F3 (ASV) IC50
Experimental: as §1, §2, §3, §4, §5

[3] = system: Ba/F3-EGFR-E746_A750del C797S; assay: Ba/F3 cell survival assay, EGFR E746_A750del C797S; format: cell-based; settings: 48 h, read-out: BA/F3 (EGFR E746_A750del C797S) IC50
Experimental: as §1, §2, §3, §4, §5

[4] = system: Ba/F3-EGFR-N771_P772insH; assay: Ba/F3 cell survival assay, EGFR N771_P772insH; format: cell-based; settings: 48 h, read-out: BA/F3 (EGFR N771— P772insH) IC50
Experimental: as §1, §2, §3, §4, §5

[5] = target: human Bub1 (Homo sapiens (Human), UniProt O43683); assay: Bub1 high ATP kinase assay (TR-FRET); format: biochemical; settings: read-out: Bub1 high ATP (2 mM) IC50; 2 mM ATP
Sequence of human Bub1 (O43683 704-1085): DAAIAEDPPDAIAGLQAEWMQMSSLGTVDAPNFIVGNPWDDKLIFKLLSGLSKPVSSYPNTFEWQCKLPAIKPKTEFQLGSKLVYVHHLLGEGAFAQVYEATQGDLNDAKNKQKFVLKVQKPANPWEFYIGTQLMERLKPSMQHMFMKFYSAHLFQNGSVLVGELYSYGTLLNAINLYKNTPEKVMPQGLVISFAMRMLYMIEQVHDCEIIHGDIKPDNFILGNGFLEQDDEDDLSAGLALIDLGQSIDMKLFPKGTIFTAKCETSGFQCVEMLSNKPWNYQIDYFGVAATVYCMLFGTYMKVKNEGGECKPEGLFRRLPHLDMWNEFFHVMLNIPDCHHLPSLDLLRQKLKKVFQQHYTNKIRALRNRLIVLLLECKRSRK
From the text: Bub1-inhibitory activity of compounds of the present invention at a high ATP concentration was quantified employing the Bub1 TR-FRET high ATP kinase assay as described in the following paragraphs.
N-terminally His6-tagged recombinant catalytic domain of human Bub1 (amino acids 704-1085), expressed in insect cells (Hi5) and purified by Ni-NTA affinity chromatography and subsequent size exclusion chromatography, was used as enzyme.

[6] = system: Ba/F3-EGFR-WT; assay: Ba/F3 cell survival assay, WT EGFR; format: cell-based
[7] = system: Ba/F3-EGFR-L858R; assay: Ba/F3 cell survival assay, EGFR L858R; format: cell-based; settings: 48 h, read-out: BA/F3 (EGFR L858R) IC50
Experimental: as §1, §2, §3, §4, §5

[8] = system: Ba/F3-EGFR-H773_V774insNPH; assay: Ba/F3 cell survival assay, EGFR H773_V774insNPH; format: cell-based; settings: Ba/F3 EGFR-H773-V774ins_NPH, 48 h, read-out: BA/F3 (EGFR H773— V774insNPH) IC50
Experimental: as §1, §2, §3, §4, §5

[9] = system: Ba/F3-EGFR-L858R C797S; assay: Ba/F3 cell survival assay, EGFR L858R C797S; format: cell-based; settings: 48 h, read-out: BA/F3 (EGFR L858R C797S) IC50
Experimental: as §1, §2, §3, §4, §5

[10] = read-out: BA/F3 (wild type) IC50, cell viability, Cell Titer-Glo, 48 h, with 10 ng/mL EGF, without IL-3

| SMILES | IC50 [1] [nM] | IC50 [2] [nM] | IC50 [3] [nM] | IC50 [4] [nM] | IC50 [5] [nM] | IC50 [6, 10] [nM] | IC50 [7] [nM] | IC50 [8] [nM] | IC50 [9] [nM] | IC50 ([6]; Mus musculus, BaF3, 48 h, read-out: BA/F3 (wild type) IC50, cell viability, Cell Titer-Glo, 48 h, with 10 ng/mL EGF, without IL-3) [nM] |
| --- | --- | --- | --- | --- | --- | --- | --- | --- | --- | --- |
| COc1c(Cl)cccc1Nc1c(-c2ccncc2OCC2(C)CCO2)[nH]c2c1C(=O)NCC2 (single isomer, unassigned; (+)) [Example 48, (+)-3-(3-chloro-2-methoxyanilino)-2-{3-[(2-methyloxetan-2-yl)methoxy]pyridin-4-yl}-1,5,6,7-tetrahydro-4H-pyrrolo[3,2-c]pyridin-4-one] | 12.9 | 11.4 | 0.34 | 5.13 | 10300 | 350 | 1.28 | 38.3 | 1.28 |  |
| COc1c(Cl)cccc1Nc1c(-c2ccncc2OCC2OCC2(C)C)[nH]c2c1C(=O)NCC2 (single isomer, unassigned; (+)) [Example 50, (+)-3-(3-chloro-2-methoxyanilino)-2-{3-[(3,3-dimethyloxetan-2-yl)methoxy]pyridin-4-yl}-1,5,6,7-tetrahydro-4H-pyrrolo[3,2-c]pyridin-4-one] | 12.4 | 16.4 | 0.519 | 7.64 | > 20000 | 349 | 1.62 | 45.4 | 2.92 |  |
| COc1c(Cl)cccc1Nc1c(-c2ccncc2OCCC2CCO2)[nH]c2c1C(=O)NCC2 (single isomer, unassigned; (-)) [Example 26, (−)-3-(3-chloro-2-methoxyanilino)-2-{3-[2-(oxetan-2-yl)ethoxy]pyridin-4-yl}-1,5,6,7-tetrahydro-4H-pyrrolo[3,2-c]pyridin-4-one] | 8.39 | 9.36 | 0.27 | 3.7 | 1540 | 204 | 0.813 | 29.6 | 1 |  |
| COc1c(Cl)cccc1Nc1c(-c2ccncc2OC[C@@H]2CCO2)[nH]c2c1C(=O)NCC2 [Example 2, 3-(3-chlor-2-methoxyanilino)-2-{3-[(2S)-oxetan-2-ylmethoxy]pyridin-4-yl}-1,5,6,7-tetrahydro-4H-pyrrolo[3,2-c]pyridin-4-on] | 11.4 | 9.73 | 0.328 | 5.59 | > 20000 |  | 1.2 | 30.1 | 1.53 | 282 |
